Columns and labels:
Experiment in all cases: relative viability (nuclei count vs DMSO), 5 days (fraction); higher = more cells survive
[1] = tested on: 201T
Procedure, shortened: (§1)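 Lung cancer cell lines were seeded in 1536-well plates and dosed by pin tool the next day, with either a single drug or a fixed anchor-drug dose combined with five library-drug doses (not always all listed) spaced in √10 steps. Five days later, one step fixed the cells and stained their nuclei (final 0.05% Triton X-100, 1% formaldehyde, 1 ug/ml Hoechst), and nuclei were counted on 4× images. Relative viability is the nuclei count in treated wells divided by the count in vehicle wells, and each value is the median of duplicate plates.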

[2] = tested on: A-427
Procedure, shortened: as §1

[3] = tested on: BEN
Procedure, shortened: as §1

[4] = tested on: COR-L23
Procedure, shortened: as §1

[5] = tested on: EKVX
Procedure, shortened: as §1

[6] = tested on: EMC-BAC-2
Procedure, shortened: as §1

[7] = tested on: EPLC-272H
Procedure, shortened: as §1

[8] = tested on: HCC-44
Procedure, shortened: as §1

[9] = tested on: HCC-827
Procedure, shortened: as §1

[10] = tested on: LCLC-103H
Procedure, shortened: as §1

[11] = tested on: LK-2
Procedure, shortened: as §1

[12] = tested on: LXF-289
Procedure, shortened: as §1

[13] = tested on: NCI-H1650
Procedure, shortened: as §1

[14] = tested on: NCI-H1651
Procedure, shortened: as §1

[15] = tested on: NCI-H1793
Procedure, shortened: as §1

[16] = tested on: NCI-H1915
Procedure, shortened: as §1

[17] = tested on: NCI-H2087
Procedure, shortened: as §1

[18] = tested on: NCI-H2126
Procedure, shortened: as §1

[19] = tested on: NCI-H2347
Procedure, shortened: as §1

[20] = tested on: NCI-H358
Procedure, shortened: as §1

[21] = tested on: NCI-H460
Procedure, shortened: as §1

[22] = tested on: NCI-H596
Procedure, shortened: as §1

[23] = tested on: SW 1573
Procedure, shortened: as §1

## Cc1cnc(-c2cnc(NCCNc3ccc(C#N)cn3)nc2-c2ccc(Cl)cc2Cl)[nH]1 + CC(=O)Nc1cccc(-n2c(=O)n(C3CC3)c(=O)c3c(Nc4ccc(I)cc4F)n(C)c(=O)c(C)c32)c1 [Trametinib] (partner 0.02 µM)
[1]; first compound 0.08 µM
  relative viability: 0.746
[1]; first compound 0.8 µM
  relative viability: 0.707
[1]; first compound 2.53 µM
  relative viability: 0.753
[2]; first compound 0.08 µM
  relative viability: 0.814
[2]; first compound 0.253 µM
  relative viability: 0.792
[2]; first compound 0.8 µM
  relative viability: 0.827
[2]; first compound 2.53 µM
  relative viability: 0.837
[3]; first compound 0.08 µM
  relative viability: 1.25
[3]; first compound 0.253 µM
  relative viability: 0.879
[3]; first compound 0.8 µM
  relative viability: 1.04
[3]; first compound 2.53 µM
  relative viability: 1.42
[4]; first compound 0.08 µM
  relative viability: 0.763
[4]; first compound 0.253 µM
  relative viability: 0.565
[4]; first compound 0.8 µM
  relative viability: 0.642
[4]; first compound 2.53 µM
  relative viability: 0.585
[5]; first compound 0.08 µM
  relative viability: 0.391
[5]; first compound 0.253 µM
  relative viability: 0.328
[5]; first compound 0.8 µM
  relative viability: 0.256
[5]; first compound 2.53 µM
  relative viability: 0.358
[6]; first compound 0.08 µM
  relative viability: 1.06
[6]; first compound 0.253 µM
  relative viability: 0.976
[6]; first compound 0.8 µM
  relative viability: 0.853
[6]; first compound 2.53 µM
  relative viability: 0.887
[7]; first compound 0.08 µM
  relative viability: 0.26
[7]; first compound 0.253 µM
  relative viability: 0.298
[7]; first compound 0.8 µM
  relative viability: 0.314
[7]; first compound 2.53 µM
  relative viability: 0.296
[8]; first compound 0.08 µM
  relative viability: 1.13
[8]; first compound 0.253 µM
  relative viability: 1.02
[8]; first compound 0.8 µM
  relative viability: 1.01
[8]; first compound 2.53 µM
  relative viability: 1.04
[9]; first compound 0.08 µM
  relative viability: 0.597
[9]; first compound 0.253 µM
  relative viability: 0.473
[9]; first compound 0.8 µM
  relative viability: 0.522
[9]; first compound 2.53 µM
  relative viability: 0.434
[10]; first compound 0.08 µM
  relative viability: 0.686
[10]; first compound 0.253 µM
  relative viability: 0.676
[10]; first compound 0.8 µM
  relative viability: 0.631
[10]; first compound 2.53 µM
  relative viability: 0.671
[11]; first compound 0.08 µM
  relative viability: 0.834
[11]; first compound 0.253 µM
  relative viability: 0.833
[11]; first compound 0.8 µM
  relative viability: 0.841
[11]; first compound 2.53 µM
  relative viability: 0.955
[12]; first compound 0.08 µM
  relative viability: 0.704
[12]; first compound 0.253 µM
  relative viability: 0.6
[12]; first compound 0.8 µM
  relative viability: 0.674
[12]; first compound 2.53 µM
  relative viability: 0.69
[13]; first compound 0.08 µM
  relative viability: 0.659
[13]; first compound 0.253 µM
  relative viability: 0.47
[13]; first compound 0.8 µM
  relative viability: 0.365
[13]; first compound 2.53 µM
  relative viability: 0.469
[14]; first compound 0.08 µM
  relative viability: 0.855
[14]; first compound 0.253 µM
  relative viability: 0.706
[14]; first compound 0.8 µM
  relative viability: 0.74
[14]; first compound 2.53 µM
  relative viability: 0.864
[15]; first compound 0.08 µM
  relative viability: 0.462
[15]; first compound 0.253 µM
  relative viability: 0.45
[15]; first compound 0.8 µM
  relative viability: 0.422
[15]; first compound 2.53 µM
  relative viability: 0.403
[16]; first compound 0.08 µM
  relative viability: 0.308
[16]; first compound 0.8 µM
  relative viability: 0.29
[16]; first compound 2.53 µM
  relative viability: 0.299
[17]; first compound 0.08 µM
  relative viability: 0.203
[17]; first compound 0.8 µM
  relative viability: 0.214
[17]; first compound 2.53 µM
  relative viability: 0.177
[18]; first compound 0.08 µM
  relative viability: 0.58
[18]; first compound 0.253 µM
  relative viability: 0.546
[18]; first compound 0.8 µM
  relative viability: 0.564
[18]; first compound 2.53 µM
  relative viability: 0.546
[19]; first compound 0.08 µM
  relative viability: 0.296
[19]; first compound 0.253 µM
  relative viability: 0.272
[19]; first compound 0.8 µM
  relative viability: 0.297
[19]; first compound 2.53 µM
  relative viability: 0.287
[20]; first compound 0.08 µM
  relative viability: 0.147
[20]; first compound 0.253 µM
  relative viability: 0.143
[20]; first compound 0.8 µM
  relative viability: 0.136
[20]; first compound 2.53 µM
  relative viability: 0.13
[21]; first compound 0.08 µM
  relative viability: 0.225
[21]; first compound 0.253 µM
  relative viability: 0.121
[21]; first compound 0.8 µM
  relative viability: 0.107
[21]; first compound 2.53 µM
  relative viability: 0.195
[22]; first compound 0.08 µM
  relative viability: 0.877
[22]; first compound 0.253 µM
  relative viability: 0.704
[22]; first compound 0.8 µM
  relative viability: 0.782
[22]; first compound 2.53 µM
  relative viability: 0.91
[23]; first compound 0.08 µM
  relative viability: 0.718
[23]; first compound 0.253 µM
  relative viability: 0.537
[23]; first compound 0.8 µM
  relative viability: 0.575
[23]; first compound 2.53 µM
  relative viability: 0.337

Reference: the supplement of paper PMC10307832
